# Test results from US9834660B2, “Rare earth metal complexes that excite in the long UV wavelength range” (HONEYWELL INTERNATIONAL INC., priority 2007, dated 2017).
# Experiment: Lightfastness: fluorescence intensity of dried drops on filter paper before and after SOL2 irradiation (simulated sunlight behind window glass)
# Type: physicochemical
# Conditions: dried drop on filter paper; for fluorescence intensity after 20 h of irradiation: after 20 h of irradiation (SOL2), 366 nm; for starting fluorescence intensity under 366 nm wavelength: before SOL2 irradiation, formula (IV) 5% solution in water, comparator in ethanol
# Text: As used herein, “lightfast,” “lightfastness,” and “light stable” are used interchangeably as measures of the degree of stability of fluorescence when a compound or composition is irradiated with light energy. The lightfastness of the europium complex of formula (IV), Europium[tris-4,4′-[3-[4-(4-sulfophenyl)-2-pyridinyl]-1,2,4-triazine-5,6-diphenyl]-bis-benzenesulfonic acid, trisodium)] chloride, was compared with a known europium diketonate complex, europium tris-benzoyltrifluoro-acetone, as follows: a 5% solution containing formula (IV) (in water) and a solution of europium-tris-benzoyltrifluoro-acetone (in ethanol) were prepared. One drop from each solution was placed onto a piece of filter paper. The drops were dried in air. The dried drops were then irradiated with SOL2 equipment (simulation of sunlight behind window glass). The starting fluorescence intensity under 366 nm wavelength for the drop containing europium-tris-benzoyltrifluoro-acetone was 19.4 cd/m^2, and the starting fluorescence intensity for the drop containing formula (IV) was 11.5 cd/m^2. After 20 h of irradiation at 366 nm, the fluorescence intensity for the drop containing europium-tris-benzoyltrifluoro-acetone had decreased to only 3.2 cd/m^2, as compared with a fluorescence intensity for the drop containing formula (IV) that was 10.7 cd/m^2.
# This occurred even though the molar concentration of the solution containing formula (IV) was lower than the molar concentration of europium-tris-benzoyltrifluoro-acetone (2.2×10^−4 mol versus 6×10^−4 mol, respectively).
Substance,fluorescence intensity after 20 h of irradiation [cd/m^2],starting fluorescence intensity under 366 nm wavelength [cd/m^2]
"Europium[tris-4,4′-[3-[4-(4-sulfophenyl)-2-pyridinyl]-1,2,4-triazine-5,6-diphenyl]-bis-benzenesulfonic acid, trisodium)] chloride [formula (IV)]",10.7,11.5
europium tris-benzoyltrifluoro-acetone [europium-tris-benzoyltrifluoro-acetone],3.2,19.4
